What follows are compounds tested on recombinant NL-RLuc virus (NL4-3 with Renilla Luciferase gene) (assay: Inhibition of HIV replication (NL-RLuc luciferase reporter virus in MT-2 cells)). Conditions: NL43, 120 h.
Type: cell-based
Description: Inhibition of HIV Replication:
A recombinant NL-RLuc proviral clone was constructed in which a section of the nef gene from NL4-3 was replaced with the Renilla Luciferase gene. This virus is fully infectious and can undergo multiple cycles of replication in cell culture. In addition, the luciferous reporter provides a simple and easy method for quantitating the extent of virus growth and consequently, the antiviral activity of test compounds. The plasmid pNLRLuc contains the proviral NL-Rluc DNA cloned into pUC18 at the PvuII site. The NL-RLuc virus was prepared by transfection of 293T cells with the plasmid pNLRLuc. Transfections were performed using the LipofectAMINE PLUS kit from Invitrogen (Carlsbad, Calif.) according to the manufacturer and the virus generated was titered in MT-2 cells. For susceptibility analyses, the titrated virus was used to infect MT-2 cells in the presence of compound, and after 5 days of incubation, cells were processed and quantitated for virus growth by the amount of expressed luciferase. Assay media was RPMI 1640 supplemented with 10% heat inactivated fetal bovine serum (FBS), 100 units/ml penicillin G/100 units/ml streptomycin, 10 mM HEPES buffer pH 7.55 and 2 mM L-glutamine. The results from at least 2 experiments were used to calculate the EC50 values. Luciferase was quantitated using the Dual Luciferase kit from Promega (Madison, Wis.). Susceptibility of viruses to compounds was determined by incubation in the presence of serial dilutions of the compound. The 50% effective concentration (EC50) was calculated by using the exponential form of the median effect equation where (Fa)=1/[1+(ED50/drug conc.)^m] (Johnson V A, Byington R T. Infectivity Assay. In Techniques in HIV Research. ed. Aldovini A, Walker B D. 71-76. New York: Stockton Press. 1990).

Compound | EC50 [nM]
Cc1nc2cc3nn2c(c1[C@H](OC(C)(C)C)C(=O)O)-c1ccc(cc1)OCCCCCCOc1cc(F)ccc1-c1cccc-3c1 [Example 1, (2S)-2-(tert-butoxy)-2-{18-fluoro-4-methyl-21,28-dioxa-5,7,8-triazahexacyclo [27.2.2.1^6,^9.1^10,^14.0^2,^7.0^15,^20]pentatriaconta-1(31),2,4,6(35),8,10(34),11,13, 15(20),16,18,29,32-tridecaen-3-yl}acetic acid] | 397
Cc1nc2cc3nn2c(c1[C@H](OC(C)(C)C)C(=O)O)-c1ccc(cc1)OC/C=C/COc1cc(F)ccc1-c1cccc-3c1 [Example 2, (2S)-2-(tert-butoxy)-2-[(23E)-18-fluoro-4-methyl-21,26-dioxa-5,7,8-triazahexacyclo [25.2.2.1^6,^9.1^10,^14.0^2,^7.0^15,^20]tritriaconta-1(29),2,4,6(33),8,10(32),11,13, 15(20),16,18,23,27,30-tetradecaen-3-yl]acetic acid] | 696
Cc1nc2cc3nn2c(c1[C@H](OC(C)(C)C)C(=O)O)-c1ccc(cc1)OCc1cccc(c1)COc1cc(F)ccc1-c1cccc-3c1 [Example 3, (2S)-2-(tert-butoxy)-2-{18-fluoro-4-methyl-21,29-dioxa-5,7,8-triazaheptacyclo [28.2.2.1^6,^9.1^10,^14.1^23,^27.0^2,^7.0^15,^20]heptatriaconta-1(32),2,4,6(37),8,10(36),11,13, 15(20),16,18,23(35),24,26,30,33-hexadecaen-3-yl}acetic acid] | 55
Cc1nc2cc3nn2c(c1[C@H](OC(C)(C)C)C(=O)O)-c1ccc(cc1)OCC#CCOc1cc(F)ccc1-c1cccc-3c1 [Example 4, (2S)-2-(tert-butoxy)-2-{18-fluoro-4-methyl-21,26-dioxa-5,7,8-triazahexacyclo [25.2.2.1^6,^9.1^10,^14.0^2,^7.0^15,^20]tritriaconta-1(29),2,4,6(33),8,10(32),11,13, 15(20),16,18,27,30-tridecaen-23-yn-3-yl}acetic acid] | 281
Cc1nc2cc3nn2c(c1[C@H](OC(C)(C)C)C(=O)O)-c1ccc(cc1)OCCOCCOc1cc(F)ccc1-c1cccc-3c1 [Example 5, (2S)-2-(tert-butoxy)-2-{18-fluoro-4-methyl-21,24,27-trioxa-5,7,8-triazahexacyclo [26.2.2.1^6,^9.1^10,^14.0^2,^7.0^15,^20]tetratriaconta-1(30),2,4,6(34),8,10(33),11,13, 15(20),16,18,28,31-tridecaen-3-yl}acetic acid] | 309
Cc1nc2cc3nn2c(c1[C@H](OC(C)(C)C)C(=O)O)-c1ccc(c2ccccc12)OCc1cccc(c1)COc1cc(F)ccc1-c1cccc-3c1 [Example 6, (2S)-2-(tert-butoxy)-2-{18-fluoro-4-methyl-21,29-dioxa-5,7,8-triazaoctacyclo[28.6.2.1^6,9.1^10,14. 1^23,27.0^2,7.0^15,20.0^31,36]hentetraconta-1(37),2,4,6(41),8,10(40),11,13,15(20),16,18,23(39),24,26,30(38),31(36),32,34-octadecaen-3-yl}acetic acid] | 20000
Cc1nc2cc3nn2c(c1[C@H](OC(C)(C)C)C(=O)O)-c1ccc(c2ccccc12)OCC#CCOc1cc(F)ccc1-c1cccc-3c1 [Example 7, (2S)-2-(tert-butoxy)-2-{18-fluoro-4-methyl-21,26-dioxa-5,7,8-triazaheptacyclo[25.6.2.1^6,9.1^10,14.0^2,7.0^15,20.0^28,33]heptatriaconta-1(34),2,4,6(37),8,10(36),11,13,15(20),16,18,27(35),28 (33),29,31-pentadecaen-23-yn-3-yl}acetic acid] | 12100
C=C1COc2cc(ccc2C)-c2c([C@H](OC(C)(C)C)C(=O)O)c(C)nc3cc(nn23)-c2cccc(c2)-c2ccc(F)cc2OC1 [Example 8, (2S)-2-(tert-Butoxy)-2-{22-fluoro-7,13-dimethyl-17-methylidene-15,19-dioxa-3,4,6-triazahexacyclo [24.3.1.1^2,^5.1^10,^14.0^4,^9.0^20,^25]dotriaconta-1(30),2,5(32),6,8,10,12,14(31), 20(25),21,23,26,28-tridecaen-8-yl}acetic acid] | 784
Cc1ccc2cc1OC/C=C/COc1cc(F)ccc1-c1cccc(c1)-c1cc3nc(C)c([C@H](OC(C)(C)C)C(=O)O)c-2n3n1 [Example 9, (2S)-2-(tert-Butoxy)-2-[(17E)-23-fluoro-7,13-dimethyl-15,20-dioxa-3,4,6-triazahexacyclo [25.3.1.1^2,^5.1^10,^14.0^4,^9.0^21,^26]tritriaconta-1(31),2,5(33),6,8,10,12,14(32), 17,21(26),22,24,27,29-tetradecaen-8-yl]acetic acid] | 489
Cc1ccc2cc1OCc1cccc(n1)COc1cc(F)ccc1-c1cccc(c1)-c1cc3nc(C)c([C@H](OC(C)(C)C)C(=O)O)c-2n3n1 [Example 10, (2S)-2-(tert-Butoxy)-2-{26-fluoro-7,13-dimethyl-15,23-dioxa-3,4,6,35-tetraazaheptacyclo [28.3.1.1^2,^5.1^10,^14.0^17,^21.0^4,^9.0^24,^29]heptatriaconta-1(34),2,5(37),6,8,10,12,14(36), 17(35),18,20,24(29),25,27,30,32-hexadecaen-8-yl}acetic acid] | 4200
Cc1ccc2cc1OC/C=C\COc1cc(F)ccc1-c1cccc(c1)-c1cc3nc(C)c([C@H](OC(C)(C)C)C(=O)O)c-2n3n1 [Example 11, (2S)-2-(tert-Butoxy)-2-[(17Z)-23-fluoro-7,13-dimethyl-15,20-dioxa-3,4,6-triazahexacyclo [25.3.1.1^2,^5.1^10,^14.0^4,^9.0^21,^26]tritriaconta-1(31),2,5(33),6,8,10,12,14(32), 17,21(26),22,24,27,29-tetradecaen-8-yl]acetic acid] | 3310
Cc1ccc2cc1OCCC(F)(F)C(F)(F)CCOc1cc(F)ccc1-c1cccc(c1)-c1cc3nc(C)c([C@H](OC(C)(C)C)C(=O)O)c-2n3n1 [Example 12, (2S)-2-(tert-Butoxy)-2-{18,18,19,19,25-pentafluoro-7,13-dimethyl-15,22-dioxa-3,4,6-triazahexacyclo [27.3.1.1^2,^5.1^10,^14.0^4,^9.0^23,^28]pentatriaconta-1(33),2,5(35),6,8,10,12,14(34), 23(28),24,26,29,31-tridecaen-8-yl}acetic acid] | 1670
Cc1ccc2cc1OCC#CCOc1cc(F)ccc1-c1cccc(c1)-c1cc3nc(C)c([C@H](OC(C)(C)C)C(=O)O)c-2n3n1 [Example 13, (2S)-2-(tert-Butoxy)-2-{23-fluoro-7,13-dimethyl-15,20-dioxa-3,4,6-triazahexacyclo [25.3.1.1^2,^5.1^10,^14.0^4,^9.0^21,^26]tritriaconta-1(31),2,5(33),6,8,10,12,14(32), 21(26),22,24,27,29-tridecaen-17-yn-8-yl}acetic acid] | 288
Cc1ccc2cc1OCCN(C(C)(C)C)CCOc1cc(F)ccc1-c1cccc(c1)-c1cc3nc(C)c([C@H](OC(C)(C)C)C(=O)O)c-2n3n1 [Example 14, (2S)-2-(tert-Butoxy)-2-{18-tert-butyl-24-fluoro-7,13-dimethyl-15,21-dioxa-3,4,6,18-tetraazahexacyclo [26.3.1.1^2,^5.1^10,^14.0^4,^9.0^22,^27]tetratriaconta-1(32),2,5(34),6,8,10,12,14(33), 22(27),23,25,28,30-tridecaen-8-yl}acetic acid] | 3250
Cc1ccc2cc1OCc1cccc(c1)COc1cc(F)ccc1-c1cccc(c1)-c1cc3nc(C)c([C@H](OC(C)(C)C)C(=O)O)c-2n3n1 [Example 15, (2S)-2-(tert-Butoxy)-2-{26-fluoro-7,13-dimethyl-15,23-dioxa-3,4,6-triazaheptacyclo [28.3.1.1^2,^5.1^10,^14.1^17,^21.0^4,^9.0^24,^29]heptatriaconta-1(34),2,5(37),6,8,10,12,14(36), 17(35),18,20,24(29),25,27,30,32-hexadecaen-8-yl}acetic acid] | 301
Cc1ccc2cc1OCCCCCCOc1cc(F)ccc1-c1cccc(c1)-c1cc3nc(C)c([C@H](OC(C)(C)C)C(=O)O)c-2n3n1 [Example 16, (2S)-2-(tert-Butoxy)-2-{25-fluoro-7,13-dimethyl-15,22-dioxa-3,4,6-triazahexacyclo [27.3.1.1^2,^5.1^10,^14.0^4,^9.0^23,^28]pentatriaconta-1(33),2,5(35),6,8,10,12,14(34), 23(28),24,26,29,31-tridecaen-8-yl}acetic acid] | 780
Cc1ccc2cc1OCCOCCOc1cc(F)ccc1-c1cccc(c1)-c1cc3nc(C)c([C@H](OC(C)(C)C)C(=O)O)c-2n3n1 [Example 17, (2S)-2-(tert-Butoxy)-2-{24-fluoro-7,13-dimethyl-15,18,21-trioxa-3,4,6-triazahexacyclo [26.3.1.1^2,^5.1^10,^14.0^4,^9.0^22,^27]tetratriaconta-1(32),2,5(34),6,8,10,12,14(33), 22(27),23,25,28,30-tridecaen-8-yl}acetic acid] | 289
